According to patent publication US20030022826A1, “Use of synthetic peptides to induce tolerance to pathogenic T and B cell epitopes of autoantigens or infectious agents” (priority 1987, published 2003):

Legend:
[1] = system: circulating chimpanzee T, B or NK cell populations; experiment: Absolute numbers of lymphocytes and lymphocyte subsets by flow cytometry during immunization; format: in vivo; details: for B cells, % Change / T cells, % Change / Total Lymphocytes, % Change / NK cells, % Change: before vs during immunization; for average drop of T cell levels: during the immunization period; for B cells, During / NK cells, During / T cells, During / Total Lymphocytes, During: mean, months 2-14 of immunization, n = 11
Excerpt: Flow Cytometry: Chimpanzee PB mononuclear cells were studied by standard flow cytometry methods using a flow cytometer (751; Coulter Electronics, Inc., Hialeah, Fla.). PB lymphocytes were identified by the following markers; total T cells, CD3; T cell subunits, CD4 and CD8; B cells, CD19; and NK cells, CD56 and CD16.

[2] = DSP cross-linking and SDS-PAGE analysis of peptide complexes; format: physicochemical; details: DSP cross-linking in the presence of Triton-X 100 1%
Description: Lanes D,E,F, and G show the effect on peptide MW when the peptide is cross-linked with 6.25 μg (D), 12.5 μg (E), 25 μg (F) and 50 μg (G) of DSP prior to SDS-PAGE. […] At present, the nature of the two bands in this peptide under reducing conditions is unknown; these two bands can be purified by cutting the bands out of preparative gels and can be analyzed by mass spectroscopy and sequenced. Lanes A and B show the results of crosslinking F-T1-SP10IIIB(A) peptide in the presence to Triton-X 100 1% and run under reducing (A) and non-reducing conditions (B).

PHA = experiment: PBMC proliferative responses to PHA in immunized chimpanzees; format: in vivo, chimpanzee; details: animals 1045 and 1070; throughout the immunization period
Excerpt: Acpm=experimental cpm—control cpm.

CC[C@H](C)[C@H](NC(=O)[C@@H](NC(=O)[C@@H](NC(=O)[C@H](Cc1ccccc1)NC(=O)[C@H](C)NC(=O)[C@H](CCCNC(=N)N)NC(=O)CNC(=O)[C@@H]1CCCN1C(=O)CNC(=O)[C@H](CCCNC(=N)N)NC(=O)[C@H](CCC(N)=O)NC(=O)[C@@H](NC(=O)[C@H](CCCNC(=N)N)NC(=O)[C@@H](NC(=O)[C@H](CO)NC(=O)[C@H](CCCCN)NC(=O)[C@H](CCCNC(=N)N)NC(=O)[C@@H](NC(=O)[C@H](CC(N)=O)NC(=O)[C@H](CC(N)=O)NC(=O)[C@H](CC(N)=O)NC(=O)[C@@H]1CCCN1C(=O)[C@H](CCCNC(=N)N)NC(=O)[C@@H](NC(=O)[C@H](CS)NC(=O)[C@H](C)NC(=O)[C@H](Cc1ccc(O)cc1)NC(=O)[C@H](CCSC)NC(=O)[C@H](C)NC(=O)[C@H](CCCCN)NC(=O)CNC(=O)[C@@H](NC(=O)[C@H](CCC(=O)O)NC(=O)[C@H](CCC(N)=O)NC(=O)[C@H](Cc1c[nH]c2ccccc12)NC(=O)[C@H](CCSC)NC(=O)[C@H](CC(N)=O)NC(=O)[C@@H](NC(=O)[C@@H](NC(=O)[C@H](CCC(N)=O)NC(=O)[C@H](CCCCN)NC(=O)[C@H](CC(C)C)NC(=O)[C@H](Cc1ccccc1)NC(=O)CNC(=O)[C@H](CC(C)C)NC(=O)[C@H](Cc1ccccc1)NC(=O)[C@H](CC(C)C)NC(=O)[C@H](C)NC(=O)CNC(=O)[C@@H](NC(=O)CNC(=O)[C@@H](NC(=O)[C@H](C)N)C(C)C)[C@@H](C)CC)[C@@H](C)CC)[C@@H](C)CC)C(C)C)[C@@H](C)O)[C@@H](C)O)[C@@H](C)CC)[C@@H](C)CC)C(C)C)[C@@H](C)O)C(=O)O [F-T1-SP10IIIB(A)]
lymphocyte count ([1]; animal 1045, week 12): 650 /mm^3
B cells, % Change ([1]; chimpanzee 1045, § p > .005): −40%§
T cells, % Change ([1]; chimpanzee 1045, † p > .001): −59%†
Total Lymphocytes, % Change ([1]; chimpanzee 1045, † p > .001): −55%†
NK cells, % Change ([1]; chimpanzee 1045, ‡ p > .02): −45%‡
average drop of T cell levels ([1]; chimpanzee 1045, p>0.001 as printed): 59%
B cells, During ([1]; chimpanzee 1045): 175 Cells/mm^3
NK cells, During ([1]; chimpanzee 1045): 61 Cells/mm^3
T cells, During ([1]; chimpanzee 1045): 1012 Cells/mm^3
Total Lymphocytes, During ([1]; chimpanzee 1045): 1426 Cells/mm^3
B cells, % Change ([1]; chimpanzee 1070): −23%
NK cells, % Change ([1]; chimpanzee 1070): −36%
Total Lymphocytes, % Change ([1]; chimpanzee 1070): −30%
T cells, % Change ([1]; chimpanzee 1070, ‡ p > .02): −44%‡
average drop of T cell levels ([1]; chimpanzee 1070, p>0.02 as printed): 44%
B cells, During ([1]; chimpanzee 1070): 232 Cells/mm^3
NK cells, During ([1]; chimpanzee 1070): 306 Cells/mm^3
T cells, During ([1]; chimpanzee 1070): 1887 Cells/mm^3
Total Lymphocytes, During ([1]; chimpanzee 1070): 2768 Cells/mm^3
effect on circulating lymphocyte levels ([1]; chimpanzees, F-derivatized peptide in 1045 and 1070, Th-B in 884 and 1028): induced decreases in absolute levels of circulating T cells
stability of high MW complexes to detergent [2]: resistant to disruption by this detergent
PBMC PHA responses (PHA): normal
